Assay results taken from patent publication US4464385A, “Treatment of diabetic complications with hydantoins” (Alcon Laboratories, Inc., priority 1982, dated 1984).

Assays:
[1] = tested on: cataracts in rats; experiment: Prevention or retardation of cataracts in galactose-fed rats; assay type: in vivo, rat; conditions: for % of Total Eyes, S (snowflake) / Number of Eyes Observed, + (vacuole) / Number of Eyes Observed, - (Normal) / Number of Eyes Observed, N (nuclear cataract) / Number of Eyes Observed, S (snowflake) / Number of Eyes Observed, ± / % of Total Eyes, + (vacuole) / % of Total Eyes, - (Normal) / % of Total Eyes, N (nuclear cataract): 30% galactose diet, A,C,E 0.0025%, B,D 0.01%
Summary of the method: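 Twelve rats per treatment, after two days on chow, were fed compound/diet mixtures ad libitum from Study Day 1 for thirty days; the 0.01% level was designed for 20 mg/kg/day. Cataracts were scored per eye using ophthalmoscope and/or penlight.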

[2] = tested on: aldose reductase; experiment: Aldose reductase inhibition / potency (general statement)

**Q.** “dl-spiro-(6-methylthio-chroman-4,4'-imidazolidine)-2',5'-dione” was tested. Which “% of Total Eyes, S (snowflake)” value ([1]; Study Day 14) did it give?
**A.** 58.4%

**Q.** And the “Number of Eyes Observed, + (vacuole)” value ([1]; Study Day 14)?
**A.** 10 eyes

**Q.** And the “Number of Eyes Observed, - (Normal)” value ([1]; Study Day 14)?
**A.** 0 eyes

**Q.** And the “Number of Eyes Observed, N (nuclear cataract)” value (shortened to “Number of Eyes Observed, N”) ([1]; Study Day 14)?
**A.** 0 eyes

**Q.** And the “Number of Eyes Observed, S (snowflake)” value ([1]; Study Day 14)?
**A.** 14 eyes

**Q.** And the “Number of Eyes Observed, ±” value ([1]; Study Day 14)?
**A.** 0 eyes

**Q.** And the “% of Total Eyes, + (vacuole)” value ([1]; Study Day 16)?
**A.** 37.5%

**Q.** What about the “% of Total Eyes, - (Normal)” value ([1]; Study Day 16) of the same substance?
**A.** 0%

**Q.** What about the “% of Total Eyes, N (nuclear cataract)” value ([1]; Study Day 16) of the same substance?
**A.** 0%

**Q.** What about the “% of Total Eyes, S (snowflake)” value ([1]; Study Day 16) of the same substance?
**A.** 62.5%

**Q.** And the “Number of Eyes Observed, + (vacuole)” value ([1]; Study Day 16)?
**A.** 9 eyes

**Q.** What about the “Number of Eyes Observed, - (Normal)” value ([1]; Study Day 16) of the same substance?
**A.** 0 eyes

**Q.** What about the “Number of Eyes Observed, N” value ([1]; Study Day 16) of the same substance?
**A.** 0 eyes

**Q.** And the “Number of Eyes Observed, S (snowflake)” value ([1]; Study Day 16)?
**A.** 15 eyes

**Q.** What about the “Number of Eyes Observed, ±” value ([1]; Study Day 16) of the same substance?
**A.** 0 eyes

**Q.** What about the “% of Total Eyes, + (vacuole)” value ([1]; Study Day 18) of the same substance?
**A.** 25.0%

**Q.** And the “% of Total Eyes, - (Normal)” value ([1]; Study Day 18)?
**A.** 0%

**Q.** And the “% of Total Eyes, N (nuclear cataract)” value ([1]; Study Day 18)?
**A.** 0%

**Q.** What about the “% of Total Eyes, S (snowflake)” value ([1]; Study Day 18) of the same substance?
**A.** 75.0%

**Q.** What about the “Number of Eyes Observed, + (vacuole)” value ([1]; Study Day 18) of the same substance?
**A.** 6 eyes

**Q.** What about the “Number of Eyes Observed, - (Normal)” value ([1]; Study Day 18) of the same substance?
**A.** 0 eyes

**Q.** And the “Number of Eyes Observed, N” value ([1]; Study Day 18)?
**A.** 0 eyes

**Q.** What about the “Number of Eyes Observed, S (snowflake)” value ([1]; Study Day 18) of the same substance?
**A.** 0 eyes

**Q.** And the “Number of Eyes Observed, ±” value ([1]; Study Day 18)?
**A.** 0 eyes

**Q.** And the “% of Total Eyes, + (vacuole)” value ([1]; Study Day 20)?
**A.** 20.8%

**Q.** What about the “% of Total Eyes, - (Normal)” value ([1]; Study Day 20) of the same substance?
**A.** 0%

**Q.** What about the “% of Total Eyes, N (nuclear cataract)” value ([1]; Study Day 20) of the same substance?
**A.** 0%

**Q.** What about the “% of Total Eyes, S (snowflake)” value ([1]; Study Day 20) of the same substance?
**A.** 79.2%

**Q.** And the “Number of Eyes Observed, + (vacuole)” value ([1]; Study Day 20)?
**A.** 5 eyes

**Q.** What about the “Number of Eyes Observed, - (Normal)” value ([1]; Study Day 20) of the same substance?
**A.** 0 eyes

**Q.** What about the “Number of Eyes Observed, N” value ([1]; Study Day 20) of the same substance?
**A.** 0 eyes

**Q.** And the “Number of Eyes Observed, S (snowflake)” value ([1]; Study Day 20)?
**A.** 19 eyes

**Q.** And the “Number of Eyes Observed, ±” value ([1]; Study Day 20)?
**A.** 0 eyes

**Q.** What about the “% of Total Eyes, + (vacuole)” value ([1]; Study Day 22) of the same substance?
**A.** 8.3%

**Q.** What about the “% of Total Eyes, - (Normal)” value ([1]; Study Day 22) of the same substance?
**A.** 0%

**Q.** And the “% of Total Eyes, N (nuclear cataract)” value ([1]; Study Day 22)?
**A.** 4.2%

**Q.** What about the “% of Total Eyes, S (snowflake)” value ([1]; Study Day 22) of the same substance?
**A.** 87.5%

**Q.** And the “Number of Eyes Observed, + (vacuole)” value ([1]; Study Day 22)?
**A.** 2 eyes

**Q.** What about the “Number of Eyes Observed, - (Normal)” value ([1]; Study Day 22) of the same substance?
**A.** 0 eyes

**Q.** And the “Number of Eyes Observed, N” value ([1]; Study Day 22)?
**A.** 1 eyes

**Q.** What about the “Number of Eyes Observed, S (snowflake)” value ([1]; Study Day 22) of the same substance?
**A.** 21 eyes

**Q.** What about the “Number of Eyes Observed, ±” value ([1]; Study Day 22) of the same substance?
**A.** 0 eyes

**Q.** And the “% of Total Eyes, + (vacuole)” value ([1]; Study Day 24)?
**A.** 4.2%

**Q.** What about the “% of Total Eyes, - (Normal)” value ([1]; Study Day 24) of the same substance?
**A.** 0%

**Q.** And the “% of Total Eyes, N (nuclear cataract)” value ([1]; Study Day 24)?
**A.** 4.2%

**Q.** And the “% of Total Eyes, S (snowflake)” value ([1]; Study Day 24)?
**A.** 91.7%

**Q.** And the “Number of Eyes Observed, + (vacuole)” value ([1]; Study Day 24)?
**A.** 1 eyes

**Q.** And the “Number of Eyes Observed, - (Normal)” value ([1]; Study Day 24)?
**A.** 0 eyes

**Q.** And the “Number of Eyes Observed, N” value ([1]; Study Day 24)?
**A.** 1 eyes

**Q.** What about the “Number of Eyes Observed, S (snowflake)” value ([1]; Study Day 24) of the same substance?
**A.** 22 eyes

**Q.** And the “Number of Eyes Observed, ±” value ([1]; Study Day 24)?
**A.** 0 eyes

**Q.** And the “% of Total Eyes, + (vacuole)” value ([1]; Study Day 26)?
**A.** 0%

**Q.** And the “% of Total Eyes, - (Normal)” value ([1]; Study Day 26)?
**A.** 0%

**Q.** And the “% of Total Eyes, N (nuclear cataract)” value ([1]; Study Day 26)?
**A.** 4.2%

**Q.** What about the “% of Total Eyes, S (snowflake)” value ([1]; Study Day 26) of the same substance?
**A.** 95.8%

**Q.** What about the “Number of Eyes Observed, + (vacuole)” value ([1]; Study Day 26) of the same substance?
**A.** 0 eyes

**Q.** And the “Number of Eyes Observed, - (Normal)” value ([1]; Study Day 26)?
**A.** 0 eyes

**Q.** And the “Number of Eyes Observed, N” value ([1]; Study Day 26)?
**A.** 1 eyes

**Q.** What about the “Number of Eyes Observed, S (snowflake)” value ([1]; Study Day 26) of the same substance?
**A.** 23 eyes

**Q.** And the “Number of Eyes Observed, ±” value ([1]; Study Day 26)?
**A.** 0 eyes

**Q.** And the “% of Total Eyes, + (vacuole)” value ([1]; Study Day 28)?
**A.** 0%

**Q.** And the “% of Total Eyes, - (Normal)” value ([1]; Study Day 28)?
**A.** 0%

**Q.** What about the “% of Total Eyes, N (nuclear cataract)” value ([1]; Study Day 28) of the same substance?
**A.** 12.5%

**Q.** And the “% of Total Eyes, S (snowflake)” value ([1]; Study Day 28)?
**A.** 87.5%

**Q.** And the “Number of Eyes Observed, + (vacuole)” value ([1]; Study Day 28)?
**A.** 0 eyes

**Q.** What about the “Number of Eyes Observed, - (Normal)” value ([1]; Study Day 28) of the same substance?
**A.** 0 eyes

**Q.** And the “Number of Eyes Observed, N” value ([1]; Study Day 28)?
**A.** 3 eyes

**Q.** And the “Number of Eyes Observed, S (snowflake)” value ([1]; Study Day 28)?
**A.** 21 eyes

**Q.** What about the “Number of Eyes Observed, ±” value ([1]; Study Day 28) of the same substance?
**A.** 0 eyes

**Q.** And the “% of Total Eyes, + (vacuole)” value ([1]; Study Day 30)?
**A.** 0%

**Q.** What about the “% of Total Eyes, - (Normal)” value ([1]; Study Day 30) of the same substance?
**A.** 0%

**Q.** And the “% of Total Eyes, N (nuclear cataract)” value ([1]; Study Day 30)?
**A.** 16.7%

**Q.** What about the “% of Total Eyes, S (snowflake)” value ([1]; Study Day 30) of the same substance?
**A.** 83.3%

**Q.** What about the “Number of Eyes Observed, + (vacuole)” value ([1]; Study Day 30) of the same substance?
**A.** 0 eyes

**Q.** And the “Number of Eyes Observed, - (Normal)” value ([1]; Study Day 30)?
**A.** 0 eyes

**Q.** What about the “Number of Eyes Observed, N” value ([1]; Study Day 30) of the same substance?
**A.** 4 eyes

**Q.** What about the “Number of Eyes Observed, S (snowflake)” value ([1]; Study Day 30) of the same substance?
**A.** 20 eyes

**Q.** What about the “Number of Eyes Observed, ±” value ([1]; Study Day 30) of the same substance?
**A.** 0 eyes

**Q.** And the “inhibitory capacity relative to diastereomeric mixture of 6-sulfinyl derivative” value ([1]; fold greater)?
**A.** 1.5

**Q.** And the “time to vacuole formation, 0.0025% methylthio versus 0.01% sulfinyl” value ([1]; methylthio 0.0025%, sulfinyl 0.01% in diet)?
**A.** not different from each other

**Q.** And the “potency relative to the resolved 6-fluoro compound” value [2]?
**A.** potency similar to the resolved 6-fluoro compound
